The subject of test [1] is NMDA-driven calcium influx. The test can be described thus: NMDA-driven calcium influx in transduced Ppara-null hippocampal neurons. Format: cell-based, mouse. How it is done: Ppara-null hippocampal neurons were transduced with lentivirions containing GFP (vector), FL-Ppara, and Y464D-Ppara for 48 h followed by treatment with vehicle (DMSO) (FIG. 11A), OCT (FIG. 11B), HEX (FIG. 11C), HMB (FIG. 11D), and WY14643 (FIG. 11E) for 24 h. Then neurons were stained for phalloidin to measure spine density. FIG. 11F) A representative picture of dendrite with spines (Cyan color) used for counting area of spine heads. Area of spine heads (FIG. 11G) and number of spines (FIG. 11H) in 10 μm of dendrites. Results are mean±SEM of 5 neurons per group. ^ap<0.05 vs vector only; ^bp<0.05 vs FL-Ppara. AMPA-driven calcium influx was measured in OCT (red), HEX (green) and HMB (purple)-treated Ppara-null hippocampal neurons transduced with lentivirions containing FL-Ppara (FIG. 11I), Y314D-Ppara (FIG. 11J), Y464D-Ppara (FIG. 11K), and Y314D/Y464D-Ppara (FIG. 11L). All neurons were treated with 50 μM of NMDA receptor antagonist N20C to inhibit passive calcium flow through NMDA receptor. (FIG. 11M-P) Similarly NMDA-driven calcium influx was measured in the lentivius-infected Ppara-null hippocampal neurons in the presence of different endogenous ligands. In these cases, Naspm-HCl was treated to stop the passive flow of calcium currents through AMPA receptor. Results are mean of three independent experiments.

Test [2] addresses T1, Y464D-PPARα (Mus musculus, UniProt P23204, Y464D).
T1 construct: the entire mouse GFP-Ppara gene (GFP-FLPpara) and three different mutated genes were cloned; GFP; made in house; host or cells: not clearly stated (lentivirus packaged in HEK293FT cells)
T1 sequence (P23204 1-468 Y464D): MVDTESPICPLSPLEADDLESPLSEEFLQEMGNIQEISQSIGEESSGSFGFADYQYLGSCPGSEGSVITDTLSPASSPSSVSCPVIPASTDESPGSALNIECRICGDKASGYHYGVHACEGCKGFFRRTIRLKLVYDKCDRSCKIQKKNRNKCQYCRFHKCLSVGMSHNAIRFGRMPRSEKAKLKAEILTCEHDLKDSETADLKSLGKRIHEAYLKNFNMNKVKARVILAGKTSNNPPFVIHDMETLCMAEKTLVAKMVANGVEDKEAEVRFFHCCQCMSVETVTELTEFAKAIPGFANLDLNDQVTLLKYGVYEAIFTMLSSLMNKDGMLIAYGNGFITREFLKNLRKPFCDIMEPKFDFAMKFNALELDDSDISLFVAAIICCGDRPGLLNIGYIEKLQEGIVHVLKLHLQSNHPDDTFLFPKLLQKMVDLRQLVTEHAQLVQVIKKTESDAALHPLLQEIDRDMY
As to the kind of experiment: Thermal shift assay, Y464D-PPARα with ligands. In kind it is binding. As to the method: Lentivirus-mediated de novo expression studies were performed, where wild type full-length (GFP-FLPpara) was overexpressed and three different LBD-mutated PPARα (GFP-Y314D, GFP-Y464D and GFP-Y314D/Y464D Ppara) recombinant proteins (FIG. 9D) were expressed in neurons followed by binding analyses with three endogenous ligands. Briefly, site directed mutagenesis was performed in the mouse PPARα with Y314 and Y464 residues replaced separately or together with aspartate (D). After that, the entire mouse GFP-Ppara gene (GFP-FLPpara) and three different mutated genes were cloned in the pLenti6/V5-TOPO lentiviral expression vector (FIG. 3D), packaged in lentivirus particle with HEK293FT cells, purified full length and mutated PPARα proteins in a GFP-affinity column, and finally thermal shift assays were performed in order to analyze their conformational stability. […] After 48 h of transduction, the cells were homogenized, passed through GFP-affinity column, eluted, fractionated with chloroform-methanol, and finally analyzed by GC-MS for the detection of ligands. […] On the other hand, mutation of the Y464 completely knocked down the ligand binding affinity as we observed profound loss of ligand binding in both lenti-GFP-Y464D-Ppara (FIG. 3K, FIG. 9K) and lenti-GFP-Y314D/Y464D-Ppara (FIG. 3L, FIG. 9L)-transduced Ppara-null neurons. Throughout these analyses, we used 2,4-bis (α, α-dimethyl benzyl) phenol as an internal standard (Supplementary FIG. 5A-F). We normalized peak area of different ligands with that of internal standard and then quantified the binding affinity of these ligands with different construct of PPARα by peak integration statistics (Table 1).
Thermal shift assays were performed in Applied Biosystems 7500 standard real-time thermal cycler machine with commercially available thermal shift dye kit (Life technologies; Cat #4461146). For each reaction, purified protein (0.5 μg to 1 μg) was added to 18 μL of thermal shift buffer provided with the kit, and 1-2 μL of dye. […]

Test [3] deals with PPRE-driven luciferase activity. As to the kind of experiment: PPRE-luciferase assay in Ppara-null astrocytes transduced with Ppara constructs. As to conditions: Ppara-null astrocytes (empty vector). In kind it is cell-based, mouse. How it is done: Astrocytes plated at 60-70% confluence were transfected with tk-PPREx3-Luc, a PPRE-dependent luciferase reporter construct. After 24 h of transfection, cells were treated with different concentrations of HEX (FIG. 10A), OCT (FIG. 10B) and HMB (FIG. 10C) for 4 h followed by monitoring luciferase activity. Under similar experimental condition, MTT was performed to understand the effect of these ligands on cell viability (FIG. 10D, HEX; FIG. 10E, OCT; FIG. 10F, HMB). Results are mean±SD of three independent experiments. ^ap<0.001 vs. control. Ppara-null astrocytes were transduced with lentivirions containing empty vector (FIG. 10G), FL-Ppara (FIG. 10H), Y314D-Ppara (FIG. 10I), Y464D-Ppara (FIG. 10J), and Y314D/Y464D-Ppara (FIG. 10K) for 48 h followed by transfection with tk-PPREx3-Luc. After 24 h of transfection, cells were treated with different doses of HEX, OCT and HMB for 4 h followed by monitoring luciferase activity. PPRE luciferase activity was assayed in Ppara-null astrocytes transduced with lentivirions containing empty vector (FIG. 10L), FL-Ppara (FIG. 10M), Y314D-Ppara (FIG. 10N), Y464D-Ppara (FIG. 10O), and Y314D/Y464D-Ppara (FIG. 10P) after treatment with different doses of WY14643, fenofibrate, and clofibrate. PPRE luciferase activity was assayed in primary hippocampal neurons transduced with lentivirions containing empty vector (FIG. 10Q), FL-Ppara (FIG. 10R), Y314D-Ppara (FIG. 10S), Y464D-Ppara (FIG. 10T), and Y314D/Y464D-Ppara (FIG. 10U) after treatment with different doses of HEX, OCT and HMB. Results are mean±SD of three independent experiments. ^ap<0.001 vs. control.

With `CCCCCCCCCCCCCCCC(N)=O` [HEX, hexadecanamide], the NMDA-mediated calcium influx result in test [1] (lenti-FL-Ppara) is “stimulated”; in test [1] (lenti-Y314D-Ppara), “partially restore”; in test [1] (lenti-Y314D/Y464D-Ppara) it was “remained unable to increase”; in test [1] (lenti-Y464D-Ppara), “remained unable to increase”. The “effect on Tm of Y464D-PPARα” value in test [2] is recorded as “did not alter the Tm”. Also, the PPRE-driven luciferase activity entry in test [3] is reported as “remained unable to induce”.
For the compound `CCOC(=O)C(C)(C)C(C)O` (stereo not drawn) [HMB], the NMDA-mediated calcium influx entry in test [1] (lenti-FL-Ppara) is given as “stimulated”; in test [1] (lenti-Y314D-Ppara) it was “partially restore”; in test [1] (lenti-Y314D/Y464D-Ppara) it was “remained unable to increase”; in test [1] (lenti-Y464D-Ppara), “remained unable to increase”. Also, the “effect on Tm of Y464D-PPARα” value in test [2] is recorded as “did not alter the Tm”. Further, the PPRE-driven luciferase activity entry in test [3] is listed as “remained unable to induce”.
As to `CCCCCCCCC=CCCCCCCCC(N)=O` [OCT, 9-octadecenamide], the NMDA-mediated calcium influx entry is “stimulated” in test [1] (lenti-FL-Ppara), “partially restore” in test [1] (lenti-Y314D-Ppara), “remained unable to increase” in test [1] (lenti-Y314D/Y464D-Ppara) and “remained unable to increase” in test [1] (lenti-Y464D-Ppara). For the same compound, the “effect on Tm of Y464D-PPARα” value in test [2] was “did not alter the Tm”. Further, the PPRE-driven luciferase activity entry in test [3] is reported as “remained unable to induce”.

Values taken from patent publication US10617664B2, “Brain derived PPARα ligands” (Rush University Medical Center, priority 2015, dated 2020).
